In publication PMC9118628, “Synthesis, molecular docking, and cytotoxicity of quinazolinone and dihydroquinazolinone derivatives as cytotoxic agents” (BMC Chemistry, 2022):
Read-outs that look alike come from different tables or passages of the source. Values belong to the compound of their own block, whether it stands above or below them.

Assays:
[1] = tested on: MCF-7 breast cancer cell line; assay: MTT cytotoxicity assay, MCF-7; type: cell-based; details: Homo sapiens
Procedure: (§1) The selected compounds 5a–e and 10a–f were evaluated as possible cytotoxic agents against human colon cancer HCT-116 cell line and MCF-7 breast cancer cell line by MTT assay using doxorubicin as the standard drug. […] The IC50 value was calculated from the inhibition rates at the mentioned durations. […] This is because the IC50 values in 72 h with p-value < 0.0001 are less than those in 48 h.
(§2) The human cancer cells MCF-7and HCT-116 as well as Hek-293 as normal cells were purchased from Pastor Institute of Iran. The cells were maintained in RPMI 1640 medium supplemented with 10% heat-inactivated fetal bovine serum (Company: DNAbiotec, Cat number: DB9723), and streptomycin ([…]) and penicillin (100 U/ml) at 37 °C in a humidified atmosphere with 5% CO2 in the air.
(§3) The cytotoxic activities of compounds 5a–e and 10a–f were evaluated against cancerous cell lines. […] The absorbance was read at 570 nm against a test wavelength of 690 nm […]. The inhibition percentage of compounds was calculated as: ODwells treated with DMSO1%–ODwells treated with compounds/ODwells treated with DMSO1%*100 (OD = absorbance). Then, IC50 values were calculated by nonlinear regression analysis.

[2] = tested on: Hek-293 cell lines; assay: MTT toxicity assessment on normal cells; type: cell-based; details: for toxicity against Hek-293 cell lines (in words): Hek-293 normal cells; for IC50: Homo sapiens, HEK293, Hek-293 normal cells, 72 h, read-out: IC50 (µM) Hek-293 after 72 h
Procedure: as §2, §3

[3] = tested on: human colon cancer HCT-116 cell line; assay: MTT cytotoxicity assay, HCT-116; type: cell-based
Procedure: as §1, §2, §3

[4] = tested on: PARP10; details: cited from earlier work
[5] = MCF7, MCF-7, 48 h, read-out: IC50 (µM) MCF-7 48 h
[6] = MCF7, MCF-7, 72 h, read-out: IC50 (µM) MCF-7 72 h
[7] = HCT-116, 48 h, read-out: IC50 (µM) HCT-116 48 h
[8] = HCT-116, 72 h, read-out: IC50 (µM) HCT-116 72 h

Compound: COc1ccc(-n2c(Nc3ccccc3)nc3ccccc3c2=O)cc1 [Compound 5d, 3-(4-methoxyphenyl)-2-(phenylamino)quinazolin-4(3H)-one]
IC50 [1, 5]: 28.8 µM
IC50 [1, 6]: 25 µM
melting point: 256 to 259 °C
toxicity against Hek-293 cell lines (in words) [2]: low toxicity
IC50 [2]: 68.1 ± 12.3 µM
IC50 [3, 7]: 39.2 µM
IC50 [3, 8]: 17.8 µM

Compound: CC#Cc1ccc2c(=O)[nH]c(CSc3ccc(C(=O)O)cc3)nc2c1 [Compound F]
IC50 [4]: 0.2 µM

Compound: O=c1c2ccccc2nc(Nc2ccccc2)n1CCl [Compound 5b, 3-(chloromethyl)-2-(phenylamino)quinazolin-4(3H)-one]
IC50 [1, 5]: 101 µM
IC50 [1, 6]: 76.2 µM
melting point: 194 to 197 °C
IC50 [3, 7]: 59.3 µM
IC50 [3, 8]: 37.8 µM

Compound: CC(C)n1c(Nc2ccccc2)nc2ccccc2c1=O [Compound 5e, 3-isopropyl-2-(phenylamino)quinazolin-4(3H)-one]
IC50 [1, 5]: 79 µM
IC50 [1, 6]: 42.7 µM
melting point: 143 to 146 °C
IC50 [3, 7]: 88.7 µM
IC50 [3, 8]: 63.3 µM

Compound: Cc1c(-c2ccnc(C(F)(F)F)c2)ccc2c1CCNC2=O [H]
IC50 [4]: 2.7 µM

Compound: O=c1c2ccccc2nc(Nc2ccccc2)n1C1CC1 [Compound 5c, 3-cyclopropyl-2-(phenylamino)quinazolin-4(3H)-one]
IC50 [1, 5]: 74.9 µM
IC50 [1, 6]: 50.4 µM
melting point: 141 to 144 °C
IC50 [3, 7]: 59.2 µM
IC50 [3, 8]: 29.2 µM

Compound: Cc1ccccc1Nc1nc2ccccc2c(=O)n1-c1ccccc1 [Compound 5a, 2-[(2-Methylphenyl)amino]-3-phenylquinazolin-4(3H)-one]
IC50 [1, 5]: 71.2 µM
IC50 [1, 6]: 14.7 µM
melting point: 254 to 258 °C
toxicity against Hek-293 cell lines (in words) [2]: high toxicity
IC50 [2]: 8.71 ± 1.23 µM
IC50 [3, 7]: 7.15 µM
IC50 [3, 8]: 4.87 µM

Compound: CC#Cc1ccc2c(=O)[nH]c(CSc3ncccn3)nc2c1 [Compound G]
IC50 [4]: 9.3 µM

Compound: COc1cccc2c1C(=O)c1c(O)c3c(c(O)c1C2=O)C[C@@](O)(C(=O)CO)C[C@@H]3O[C@H]1C[C@H](N)[C@H](O)[C@H](C)O1 [DOX, doxorubicin, reference compound]
IC50 [1, 5]: 1.33 µM
IC50 [1, 6]: 1.08 µM
IC50 [2]: 0.75 ± 0.09 µM
IC50 [3, 7]: 1.66 µM
IC50 [3, 8]: 1.2 µM

More lines, main results first:

melting point: 93 to 95 °C
Compound: O=C1c2ccccc2NC(c2ccc(OCc3cn(Cc4ccc(Br)cc4)nn3)cc2)N1Cc1ccccc1 (stereo not drawn) [Compound 10d, 3-benzyl-2-(4-((1-(4-bromobenzyl)-1H-1,2,3-triazol-4-yl)methoxy)phenyl)-2,3-dihydroquinazolin-4(1H)-one]
IC50 [1, 5]: 44.7 µM
IC50 [1, 6]: 14.8 µM
IC50 [3, 7]: 251 µM
IC50 [3, 8]: 206 µM

melting point: 84 to 87 °C
Compound: O=C1c2ccccc2NC(c2ccc(OCc3cn(Cc4ccc(Cl)cc4)nn3)cc2)N1Cc1ccccc1 (stereo not drawn) [Compound 10c, 3-benzyl-2-(4-((1-(4-chlorobenzyl)-1H-1,2,3-triazol-4-yl)methoxy)phenyl)-2,3-dihydroquinazolin-4(1H)-one]
IC50 [1, 5]: 52 µM
IC50 [1, 6]: 32.3 µM
IC50 [3, 7]: 120 µM
IC50 [3, 8]: 61 µM

melting point: 83 to 86 °C
Compound: O=C1c2ccccc2NC(c2ccc(OCc3cn(Cc4ccc(F)cc4)nn3)cc2)N1Cc1ccccc1 (stereo not drawn) [Compound 10b, 3-benzyl-2-(4-((1-(4-fluorobenzyl)-1H-1,2,3-triazol-4-yl)methoxy)phenyl)-2,3 dihydroquinazolin-4(1H)-one]
IC50 [1, 5]: 139 µM
IC50 [1, 6]: 98.5 µM
IC50 [3, 7]: 184 µM
IC50 [3, 8]: 64 µM

melting point: 65 to 68 °C
Compound: O=C1c2ccccc2NC(c2ccc(OCc3cn(Cc4ccccc4)nn3)cc2)N1Cc1ccccc1 (stereo not drawn) [Compound 10a, 3-benzyl-2-(4-((1-benzyl-1H-1,2,3-triazol-4-yl)methoxy)phenyl)-2,3-dihydroquinazolin-4(1H)-one]
IC50 [1, 5]: 62.3 µM
IC50 [1, 6]: 18.9 µM
IC50 [3, 7]: 88.8 µM
IC50 [3, 8]: 29 µM

melting point: 69 to 72 °C
Compound: O=C1c2ccccc2NC(c2ccc(OCc3cn(Cc4ccc(F)cc4)nn3)cc2)N1Cc1ccc(F)cc1 (stereo not drawn) [Compound 10f, 3-(4-fluorobenzyl)-2-(4-((1-(4-fluorobenzyl)-1H-1,2,3-triazol-4-yl)methoxy)phenyl)-2,3-dihydroquinazolin-4(1H)-one]
IC50 [1, 5]: 41.5 µM
IC50 [1, 6]: 16.3 µM
toxicity against Hek-293 cell lines (in words) [2]: low toxicity
IC50 [2]: 56.1 ± 10.4 µM
IC50 [3, 7]: 40.4 µM
IC50 [3, 8]: 10.1 µM

melting point: 63 to 65 °C
Compound: Cc1ccccc1Cn1cc(COc2ccc(C3Nc4ccccc4C(=O)N3Cc3ccc(F)cc3)cc2)nn1 (stereo not drawn) [Compound 10e, 3-(4-fluorobenzyl)-2-(4-((1-(2-methylbenzyl)-1H-1,2,3-triazol-4-yl)methoxy)phenyl)-2,3-dihydroquinazolin-4(1H)-one]
IC50 [1, 5]: 79.1 µM
IC50 [1, 6]: 48.8 µM
IC50 [3, 7]: 48.2 µM
IC50 [3, 8]: 33.3 µM
